In patent US8063109B2, “Formulations for parenteral administration of (e)-2, 6-dialkoxystyryl 4-substituted benzylsulfones” (Onconova Therapeutics, Inc., priority 2004, dated 2011):

What was measured:
[1] = test system: Patients With Advanced Solid Tumors; test: Phase I dose escalation study, 2-hour intravenous infusion; format: in vivo, human
Description: Safety and efficacy of this formulation, for example, is tested in a Phase I clinical study, at The Johns Hopkins Sidney Kimmel Cancer Center, Baltimore, Md., i.e., “Phase I Dose Escalation Study Of ON 01910.Na By 2-Hour Intravenous Infusion In Patients With Advanced Solid Tumors”. U.S. FDA IND #66,780. The objectives of this study include an identification of a maximum tolerated dose (MTD) and a recommended dose for further clinical studies. A further object of the study is to establish a safety profile, i.e., to observe any toxicities. The patients in this study have advanced solid tumors that have failed conventional treatments, or for which no approved therapy exists. An object of the study is particularly to observe efficacy (anti-cancer effects).
The patients are administered the preferred formulation described herein of the ON 01910.Na drug (properly diluted in intravenous solution) over a two hour period, twice per week, for three weeks. The patients are subsequently observed for […], to constitute a four week treatment cycle.
This study started with a single patient at the first starting dose level of 80 mg per patient. If there is no grade 2 or worse drug-related toxicity (side effects) observed in the first four week cycle, then another patient may be dosed at the next higher dose level. The first patient was dosed at 80 mg per patient on Aug. 3, 2004. […]

[2] = Long term stability of ON 01910.Na 75 mg/mL in 100% PEG-400 for clinical use (HPLC); format: physicochemical
Description: ON 01910.Na IV solution was manufactured at a concentration of 75 mg/mL in 100% PEG-400. The finished product consisted of 3 mL of drug product aseptically filled into presterilized 5 mL vials. The manufacturing was in compliance with current Good Manufacturing Practices regulations.
(a) HPLC—Chromatography is performed using a Phenomenex Luna C-18 (2), 5 micron (4.6 mm×250 mm, PN 00G-4252-E0) column at ambient conditions. The mobile phase used is 60%-0.1% trifluoroacetic acid in water; 40% acetonitrile. The flow rate is set at 2.0 ml/min. Injection volume is 50 μL. Detection is accomplished by means of a UV/VIS detector at 230, 254, and 320 nm. Instrument control and data acquisition is facilitated using a Waters Millennium (V 2.15) software package. The external calibration is obtained using ON 01910.Na standard solutions prepared in 50:50 acetonitrile:water. This analytical method was validated.

tumors = test: Synergy with chemotherapeutic agents; format: in vivo; details: often inducing complete regression of tumors

Question: Which drug-related toxicity ([1]; 80 to 2080 mg per patient, 2 hour iv infusion, twice per week for three weeks, four week cycle) does the source give for `COc1cc(OC)c(/C=C/S(=O)(=O)Cc2ccc(OC)c(NCC(=O)[O-])c2)c(OC)c1.[Na+]` [ON 01910.Na, (E)-2,4,6-trimethoxystyryl-3-carboxymethylamino-4-methoxybenzylsulfone] here?
Answer: no grade 2 or worse toxicities

Question: What about the dose safely administered ([1]; iv 2 hour infusion, twice per week, for 3 weeks, ten days off) of the same compound?
Answer: ≥ 2080 mg

Question: What about the shelf stability ([2]; 75 mg per ml in 100% PEG-400) of the same compound?
Answer: shelf-stable for over one year

Question: And the long term stability ([2]; 100% PEG-400 formulation for clinical use)?
Answer: extremely stable

Question: For `COc1cc(OC)c(/C=C/S(=O)(=O)Cc2ccc(OC)c(NCC(=O)O)c2)c(OC)c1` [Compound 4, (E)-2,4,6-Trimethoxystyryl-3-(carboxymethylamino)-4-methoxybenzylsulfone], which “synergy with chemotherapeutic agents” value (tumors) is on record?
Answer: strong synergy
